From patent US9475773B2, “NK3 receptor antagonist compound (NK3RA) for use in a method for the treatment of polycystic ovary syndrome (PCOS)” (ASTRAZENECA AB, priority 2013, dated 2016)

Assays:
[1] = biological target: NK1 (Homo sapiens, UniProt P25103); experiment: Specificity over other tachykinin receptors (NK1); format: binding
[2] = system: rat; experiment: Modified rat Irwin test; format: in vivo; conditions: oral 46, 460 and 2022 mg/kg
Experimental: Safety pharmacology studies were carried out on NK3RA and included tests to investigate possible effects on the central nervous system (CNS), cardiovascular system, and respiratory system.

[3] = biological target: hERG channel (Homo sapiens, UniProt Q12809); experiment: hERG channel in vitro (tail current); format: cell-based
hERG channel, sequence (Q12809 whole entry): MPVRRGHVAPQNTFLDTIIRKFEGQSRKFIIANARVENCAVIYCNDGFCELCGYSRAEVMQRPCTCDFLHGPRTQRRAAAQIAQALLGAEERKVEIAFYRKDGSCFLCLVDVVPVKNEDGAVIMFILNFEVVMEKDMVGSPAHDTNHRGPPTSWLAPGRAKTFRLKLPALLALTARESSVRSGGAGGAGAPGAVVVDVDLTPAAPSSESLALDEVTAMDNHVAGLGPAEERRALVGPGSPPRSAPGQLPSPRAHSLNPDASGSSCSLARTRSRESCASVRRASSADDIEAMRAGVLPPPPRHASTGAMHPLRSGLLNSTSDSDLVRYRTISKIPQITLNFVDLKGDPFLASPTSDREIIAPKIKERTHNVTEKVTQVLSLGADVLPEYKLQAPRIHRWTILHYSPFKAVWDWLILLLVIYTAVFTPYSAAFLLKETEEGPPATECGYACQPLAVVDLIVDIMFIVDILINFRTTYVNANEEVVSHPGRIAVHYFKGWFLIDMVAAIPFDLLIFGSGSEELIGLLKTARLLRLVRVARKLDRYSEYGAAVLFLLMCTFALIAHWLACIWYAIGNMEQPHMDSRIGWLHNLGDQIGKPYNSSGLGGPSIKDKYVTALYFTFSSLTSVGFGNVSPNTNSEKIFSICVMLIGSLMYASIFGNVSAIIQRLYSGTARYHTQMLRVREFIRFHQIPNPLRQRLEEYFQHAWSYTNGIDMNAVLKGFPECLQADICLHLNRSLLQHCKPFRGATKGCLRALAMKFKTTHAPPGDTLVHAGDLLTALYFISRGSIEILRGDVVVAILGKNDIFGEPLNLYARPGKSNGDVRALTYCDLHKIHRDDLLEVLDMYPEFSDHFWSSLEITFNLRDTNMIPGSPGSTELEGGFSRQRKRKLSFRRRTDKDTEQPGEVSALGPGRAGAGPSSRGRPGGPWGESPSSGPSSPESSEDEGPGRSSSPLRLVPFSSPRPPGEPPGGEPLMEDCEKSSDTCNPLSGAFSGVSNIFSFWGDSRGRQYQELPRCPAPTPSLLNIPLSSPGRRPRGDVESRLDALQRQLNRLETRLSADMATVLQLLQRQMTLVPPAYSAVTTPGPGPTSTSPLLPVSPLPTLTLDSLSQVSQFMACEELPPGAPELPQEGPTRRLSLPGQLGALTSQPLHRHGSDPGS

[4] = system: guinea pig heart; experiment: Monophasic action potential of the guinea pig heart; format: in vivo; conditions: IV doses up to 46 mg/kg (100 μmol/kg)
[5] = system: rats; experiment: Respiratory parameters in rats; format: in vivo, rat; conditions: up to 2000 mg/kg (4400 μmol/kg)
[6] = Pharmacokinetics and metabolism in rats; format: in vivo, rat
Experimental: At low doses, the estimated Clp of The NK3RA was moderate in rat (8.3 ml/min/kg) and low in the dog (1.2 ml/min/kg). Bioavailability (F) was ˜100% in both species indicating extensive absorption in these species. The volume of distribution (Vz) was moderate (1.6 L·kg in rat and 0.81 L/kg in dog) and consistent with the physico-chemical properties of the compound. […] The NK3RA exposure decreased after multiple dosing in rats, indicating either changes in absorption or induction of The NK3RA metabolism, or both, after multiple dosing. […] T1/2 values ranged from 5.6 hours to 14.3 hours at the end of dosing for dogs dosed at 1000 mg/kg/day (2180 μmol/kg/day). There were no consistent sex differences observed in the exposure to NK3RA in these 2 species.
Following oral administration of The NK3RA in the rat, a pharmacologically active ketone metabolite appeared rapidly in plasma but slowly reached maximum concentration levels in all animals. […] T1/2 values ranged from 8.51 hours to 13.8 hours on Day 27 and Day 28 for dogs dosed with 1000 mg/kg/day (2180 μmol/kg/day) of the NK3RA. There were no consistent sex differences observed in the exposure to the metabolite in these 2 species.

[7] = Pharmacokinetics in humans (healthy male subjects); format: in vivo, human
Experimental: Pharmacokinetic properties have been investigated in healthy male subjects. […] The elimination half-life for the NK3RA was approximately 7 hours. […] Renal elimination of the NK3RA or its metabolite was negligible. Following multiple dose administration, pharmacokinetic steady state was achieved within 4 days. At steady state, the exposure to the metabolite was approximately 66% of the parent circulated; the accumulation of the NK3RA in the plasma was minimal following QD dosing and was greater following BID dosing.

[8] = system: serum testosterone; experiment: Phase II PoP schizophrenia trial, serum testosterone; format: in vivo, human; conditions: schizophrenia patients, 40 mg QD

NK1, sequence (P25103 whole entry): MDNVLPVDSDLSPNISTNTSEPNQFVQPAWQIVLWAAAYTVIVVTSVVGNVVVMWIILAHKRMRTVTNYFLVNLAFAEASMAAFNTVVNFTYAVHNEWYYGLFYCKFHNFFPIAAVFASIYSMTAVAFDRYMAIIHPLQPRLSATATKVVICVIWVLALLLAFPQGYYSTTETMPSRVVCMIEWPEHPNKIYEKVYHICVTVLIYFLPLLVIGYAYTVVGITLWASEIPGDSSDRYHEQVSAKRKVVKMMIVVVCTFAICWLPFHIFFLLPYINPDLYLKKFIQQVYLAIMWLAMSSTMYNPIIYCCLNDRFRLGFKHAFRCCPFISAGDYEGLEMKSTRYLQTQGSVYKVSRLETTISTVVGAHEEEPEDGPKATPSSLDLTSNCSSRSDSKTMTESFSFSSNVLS

SMILES: CC[C@H](NC(=O)c1c(NS(C)(=O)=O)c(-c2ccccc2)nc2ccccc12)c1ccccc1 [NK3RA, 3-(methanesulfonamido)-2-phenyl-N-[(1S)-1-phenylpropyl]quinoline-4-carboxamide]
- specificity for NK3 over NK1 [1]: greater than 1200 fold
- findings in modified Irwin test [2]: no significant findings
- inhibition at 97 µM ([3]; human, 97 μM): 25%
- activity at the hERG channel ([3]; in vitro): only weakly active
- effect on monophasic action potential [4]: without effect
- respiratory parameters [5]: did not affect any respiratory parameters
- clearance ([6]; plasma, rat, low doses, estimated, read-out: Clp): 8.3 mL/min/kg
- volume of distribution (Vz) ([6]; rat): 1.6 L/kg
- rate of absorption ([6]; rat, oral administration): absorbed at a moderate rate
- bioavailability ([6]; rat, plasma, oral, read-out: Bioavailability (F)): ~100%
- half-life ([6]; rat, plasma, read-out: elimination half-life (T½) (converted)): 3.2 h
- exposure after multiple dosing ([6]; rats): decreased
- accumulation in the plasma ([7]; BID dosing (compared with QD)): greater
- accumulation in the plasma ([7]; QD dosing): minimal
- absorption following oral dosing ([7]; healthy male subjects): quickly absorbed
- renal elimination ([7]; healthy male subjects): negligible
- time dependence of pharmacokinetics ([7]; human, in vivo): time independent
- half-life ([7]; human, plasma, oral, healthy male subjects, read-out: elimination half-life (converted)): ~7 h
- time to pharmacokinetic steady state ([7]; multiple dose administration): ≤ 4 days
- dose proportionality of AUC and Cmax ([7]; up to approximately 80 mg): dose proportional
- serum testosterone [8]: reduction in serum testosterone
